From ChEMBL document CHEMBL1681714, “Organelle-selective energy transfer: a fluorescent indicator of intracellular environment” (Bioorg Med Chem Lett, 2011)

Experiments:
Conditions in all cases: 0.5 h; call rule not given here
[1] = Drug uptake in rat Clone 9 cells assessed as accumulation in lysosomes after 30 mins by fluorescence microscopy; type: ADME, cell-based
[2] = Drug uptake in rat Clone 9 cells assessed as accumulation in mitochondria after 30 mins by fluorescence microscopy; type: ADME
[3] = Drug uptake in rat Clone 9 cells assessed as accumulation in cytoplasm after 30 mins by fluorescence microscopy; type: ADME, cell-based
[4] = Drug uptake in rat Clone 9 cells assessed as localization to endoplasmic reticulum after 30 mins by fluorescence microscopy; type: ADME, cell-based
[5] = Drug uptake in rat Clone 9 cells assessed as accumulation in endoplasmic reticulum after 30 mins by fluorescence microscopy; type: ADME, cell-based

| Drug uptake [1] | Drug uptake [2] | Drug uptake [3] | Drug uptake [4] | Drug uptake [5] | Structure (SMILES) |
| --- | --- | --- | --- | --- | --- |
| Active | Active | Active | Active |  | COc1cc(C#Cc2ccc3c(c2)C(C)(C)C(/C=C/C=C2/N(CCCCCC(=O)O)c4ccccc4C2(C)C)=[N+]3C)ccc1C1=C2C(C)=CC(C)=[N+]2[B-](F)(F)n2c(C)cc(C)c21.[I-] |
| Active |  |  | Active | Active | COc1ccccc1C1=[N+]2C(=C(c3ccc(C#Cc4ccc(C5=[N+]6C(=Cc7c(C)c(S(=O)(=O)[O-])c(C)n7[B-]6(F)F)C(=O)N5C)cc4)cc3OCC(=O)O)c3ccc(-c4ccccc4OC)n3[B-]2(F)F)C=C1.[Na+] |
